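Abbreviation: GI50, concentration required for 50% inhibition of growth. TGI: concentration producing complete growth inhibition.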
Experiments:
Test in all cases: DTP human tumour cell line panel, 384-well format
SW-620 colon = tested on: SW-620 colon
SK-OV-3 ovarian = tested on: SK-OV-3 ovarian
SK-MEL-2 melanoma = tested on: SK-MEL-2 melanoma
NCI-H322M lung = tested on: NCI-H322M lung
TK-10 renal = tested on: TK-10 renal
M14 melanoma = tested on: M14 melanoma
OVCAR-5 ovarian = tested on: OVCAR-5 ovarian
OVCAR-3 ovarian = tested on: OVCAR-3 ovarian
PC-3 prostate = tested on: PC-3 prostate
MDA-MB-435 melanoma = tested on: MDA-MB-435 melanoma
MDA-MB-468 breast = tested on: MDA-MB-468 breast
SF-539 CNS = tested on: SF-539 CNS
786-0 renal = tested on: 786-0 renal
SNB-19 CNS = tested on: SNB-19 CNS
UACC-257 melanoma = tested on: UACC-257 melanoma
UACC-62 melanoma = tested on: UACC-62 melanoma
SF-268 CNS = tested on: SF-268 CNS
HOP-92 NSCLC = tested on: HOP-92 NSCLC
A498 renal = tested on: A498 renal
HS 578T breast = tested on: HS 578T breast
K-562 leukemia = tested on: K-562 leukemia
NCI-H226 lung = tested on: NCI-H226 lung
CAKI-1 renal = tested on: CAKI-1 renal
NCI-H23 lung = tested on: NCI-H23 lung
NCI-H460 NSCLC = tested on: NCI-H460 NSCLC
MDA-MB-231 breast = tested on: MDA-MB-231 breast
A549 NSCLC = tested on: A549 NSCLC
OVCAR-8 ovarian = tested on: OVCAR-8 ovarian
UO-31 renal = tested on: UO-31 renal
RXF 393 renal = tested on: RXF 393 renal
SK-MEL-5 melanoma = tested on: SK-MEL-5 melanoma
IGROV1 ovarian = tested on: IGROV1 ovarian
NCI-H522 lung = tested on: NCI-H522 lung
HL-60(TB) leukemia = tested on: HL-60(TB) leukemia
MALME-3M melanoma = tested on: MALME-3M melanoma
HCT-116 colon = tested on: HCT-116 colon
HCT-15 colon = tested on: HCT-15 colon
SR leukemia = tested on: SR leukemia
KM12 colon = tested on: KM12 colon
BT-549 breast = tested on: BT-549 breast
ACHN renal = tested on: ACHN renal
EKVX NSCLC = tested on: EKVX NSCLC
T-47D breast = tested on: T-47D breast
SN12C renal = tested on: SN12C renal
HOP-62 NSCLC = tested on: HOP-62 NSCLC
COLO 205 colon = tested on: COLO 205 colon
DU-145 prostate = tested on: DU-145 prostate
SK-MEL-28 melanoma = tested on: SK-MEL-28 melanoma
U251 glioblastoma = tested on: U251 glioblastoma
MCF7 breast = tested on: MCF7 breast
SNB-75 CNS = tested on: SNB-75 CNS
SF-295 CNS = tested on: SF-295 CNS
HT29 colon = tested on: HT29 colon

For `Cc1ncnc2c1ccn2[C@@H]1C[C@H](Oc2cc(C(F)F)c(F)c3c2CNCC3)[C@@H](O)[C@H]1O`, the GI50 (SW-620 colon) was 33.3 µM, the TGI (SW-620 colon) was > 100 µM and the GI50 (SK-OV-3 ovarian) was 41.9 µM. For the same compound, the TGI (SK-OV-3 ovarian) was > 100 µM, the GI50 (SK-MEL-2 melanoma) was 22.1 µM and the TGI (SK-MEL-2 melanoma) was 50.1 µM. The GI50 (NCI-H322M lung) was 24.2 µM, the TGI (NCI-H322M lung) was > 100 µM and the GI50 (TK-10 renal) was 25.5 µM. The TGI (TK-10 renal) was > 100 µM, the GI50 (M14 melanoma) was 18.4 µM and the TGI (M14 melanoma) was 38.4 µM. For the same compound, the GI50 (OVCAR-5 ovarian) was > 100 µM, the TGI (OVCAR-5 ovarian) was > 100 µM and the GI50 (OVCAR-3 ovarian) was 17.7 µM. The TGI (OVCAR-3 ovarian) was > 100 µM, the GI50 (PC-3 prostate) was 19.8 µM and the TGI (PC-3 prostate) was > 100 µM. The GI50 (MDA-MB-435 melanoma) was 38.4 µM, the TGI (MDA-MB-435 melanoma) was > 100 µM and the GI50 (MDA-MB-468 breast) was 6.74 µM. The TGI (MDA-MB-468 breast) was 35.2 µM, the GI50 (SF-539 CNS) was 36.2 µM and the TGI (SF-539 CNS) was > 100 µM. For the same compound, the GI50 ([…]-0 renal) was 23.6 µM, the TGI (786-0 renal) was > 100 µM and the GI50 (SNB-19 CNS) was > 100 µM. For the same compound, the TGI (SNB-19 CNS) was > 100 µM, the GI50 (UACC-257 melanoma) was 13.5 µM and the TGI (UACC-257 melanoma) was 27.6 µM. The GI50 (UACC-62 melanoma) was 12.5 µM, the TGI (UACC-62 melanoma) was 53.3 µM and the GI50 (SF-268 CNS) was 29 µM. For the same compound, the TGI (SF-268 CNS) was > 100 µM, the GI50 (HOP-92 NSCLC) was 28.1 µM and the TGI (HOP-92 NSCLC) was > 100 µM. For the same compound, the GI50 (A498 renal) was 19.3 µM, the TGI (A498 renal) was > 100 µM and the GI50 (HS 578T breast) was 19.3 µM. For the same compound, the TGI (HS 578T breast) was > 100 µM, the GI50 (K-562 leukemia) was 11.1 µM and the TGI (K-562 leukemia) was 23.8 µM. For the same compound, the GI50 (NCI-H226 lung) was 25.7 µM, the TGI (NCI-H226 lung) was > 100 µM and the GI50 (CAKI-1 renal) was 19.1 µM. The TGI (CAKI-1 renal) was > 100 µM, the GI50 (NCI-H23 lung) was 12.9 µM and the TGI (NCI-H23 lung) was 52.1 µM. For the same compound, the GI50 (NCI-H460 NSCLC) was 0.221 µM, the TGI (NCI-H460 NSCLC) was > 100 µM and the GI50 (MDA-MB-231 breast) was 39.2 µM. For the same compound, the TGI (MDA-MB-231 breast) was > 100 µM, the GI50 (A549 NSCLC) was 57.8 µM and the TGI (A549 NSCLC) was > 100 µM. The GI50 (OVCAR-8 ovarian) was 87.5 µM, the TGI (OVCAR-8 ovarian) was > 100 µM and the GI50 (UO-31 renal) was 26.4 µM. For the same compound, the TGI (UO-31 renal) was > 100 µM, the GI50 (RXF 393 renal) was 3.75 µM and the TGI (RXF 393 renal) was 24.9 µM. For the same compound, the GI50 (SK-MEL-5 melanoma) was 5.57 µM, the TGI (SK-MEL-5 melanoma) was 20.6 µM and the GI50 (IGROV1 ovarian) was 57.1 µM. For the same compound, the TGI (IGROV1 ovarian) was > 100 µM, the GI50 (NCI-H522 lung) was 33 µM and the TGI (NCI-H522 lung) was > 100 µM. The GI50 (HL-60(TB) leukemia) was 17 µM, the TGI (HL-60(TB) leukemia) was 30.8 µM and the GI50 (MALME-3M melanoma) was 15.5 µM. The TGI (MALME-3M melanoma) was 31.3 µM, the GI50 (HCT-116 colon) was 15 µM and the TGI (HCT-116 colon) was 63.3 µM. For the same compound, the GI50 (HCT-15 colon) was 30.5 µM, the TGI (HCT-15 colon) was > 100 µM and the TGI (SR leukemia) was 12.2 µM. For the same compound, the GI50 (KM12 colon) was 0.0943 µM, the TGI (KM12 colon) was > 100 µM and the GI50 (BT-549 breast) was 24.7 µM. The TGI (BT-549 breast) was > 100 µM, the GI50 (ACHN renal) was 39.6 µM and the TGI (ACHN renal) was > 100 µM. For the same compound, the GI50 (EKVX NSCLC) was 12.8 µM, the TGI (EKVX NSCLC) was 96 µM and the GI50 (T-47D breast) was 1.92 µM. For the same compound, the TGI (T-47D breast) was 37.6 µM, the GI50 (SN12C renal) was 49.9 µM and the TGI (SN12C renal) was > 100 µM. For the same compound, the GI50 (HOP-62 NSCLC) was 28.2 µM, the TGI (HOP-62 NSCLC) was > 100 µM and the GI50 (COLO 205 colon) was 46.5 µM. For the same compound, the TGI (COLO 205 colon) was > 100 µM, the GI50 (DU-145 prostate) was 82.9 µM and the TGI (DU-145 prostate) was > 100 µM. The GI50 (SK-MEL-28 melanoma) was 17.2 µM, the TGI (SK-MEL-28 melanoma) was 42.3 µM and the GI50 (U251 glioblastoma) was 31.6 µM. The TGI (U251 glioblastoma) was > 100 µM, the GI50 (MCF7 breast) was 6.49 µM and the TGI (MCF7 breast) was > 100 µM. The GI50 (SNB-75 CNS) was 20.8 µM, the TGI (SNB-75 CNS) was 88.6 µM and the GI50 (SF-295 CNS) was 18.9 µM. The TGI (SF-295 CNS) was 59.8 µM, the GI50 (HT29 colon) was 14 µM and the TGI (HT29 colon) was > 100 µM.

Reference: PubChem BioAssay (NCI)
